Broadly, the inhibition is how much of the control response was suppressed. A word on the IC50: it is the midpoint of a concentration-inhibition curve.

Data set [1] has as its target CYP3A4 (Homo sapiens, UniProt P08684). Briefly: Inhibition of human recombinant CYP3A4 expressed in baculosomes at 10 uM incubated for 30 mins using BOMR substrate by fluorescence based assay. In kind it is ADME. Particulars: probe BOMR.
Data set [2] deals with T1, Gonadotropin-releasing hormone receptor (Homo sapiens, UniProt P30968).
T1 sequence (P30968 whole entry): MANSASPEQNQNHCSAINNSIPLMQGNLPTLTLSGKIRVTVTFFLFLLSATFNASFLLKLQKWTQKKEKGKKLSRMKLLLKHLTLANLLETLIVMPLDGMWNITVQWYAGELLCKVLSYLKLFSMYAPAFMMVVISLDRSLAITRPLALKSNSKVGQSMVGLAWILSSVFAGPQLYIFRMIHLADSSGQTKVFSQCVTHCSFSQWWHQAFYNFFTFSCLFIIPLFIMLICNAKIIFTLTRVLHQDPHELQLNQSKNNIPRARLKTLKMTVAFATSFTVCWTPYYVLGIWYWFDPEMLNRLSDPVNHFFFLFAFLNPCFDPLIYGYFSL
As to the kind of experiment: Displacement of [125I]D-Trp6-LHRH from human GnRH receptor expressed in CHO-K1 cell membranes incubated for 1 hr by competitive binding assay.

The target in data set [3] is T1, Gonadotropin-releasing hormone receptor. Briefly: Antagonist activity against human GnRH receptor expressed in HEK293 cells co-transfected with pGL4-NFAT promoter AP1-luc assessed as inhibition of 20 nM GnRH-induced NFAT activation pre-incubated for 1 hr before GnRH stimulation and measured after 6 hrs by luciferase reporter gene assay. In kind it is cell-based. (In a reporter assay the amount or activity of a reporter protein is the signal.)

Chain of CYP3A4 (P08684 whole entry): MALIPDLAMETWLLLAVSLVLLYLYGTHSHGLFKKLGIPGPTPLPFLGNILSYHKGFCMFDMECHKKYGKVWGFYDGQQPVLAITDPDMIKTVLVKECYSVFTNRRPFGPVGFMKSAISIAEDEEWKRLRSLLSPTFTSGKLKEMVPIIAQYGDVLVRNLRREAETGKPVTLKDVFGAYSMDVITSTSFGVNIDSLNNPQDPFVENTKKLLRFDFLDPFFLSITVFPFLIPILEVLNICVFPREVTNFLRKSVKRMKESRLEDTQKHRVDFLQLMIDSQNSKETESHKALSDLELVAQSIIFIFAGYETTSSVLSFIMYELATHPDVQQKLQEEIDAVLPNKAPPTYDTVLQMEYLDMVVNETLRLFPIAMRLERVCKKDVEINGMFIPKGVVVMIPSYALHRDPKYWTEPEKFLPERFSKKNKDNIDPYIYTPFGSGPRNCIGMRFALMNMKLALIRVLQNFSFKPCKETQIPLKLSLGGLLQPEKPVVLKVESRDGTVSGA

Consider `Cc1c(N2CCN(Cc3cccc([N+](=O)[O-])c3)CC2)c(=O)n(C[C@H](N)c2ccccc2OCCCC(=O)O)c(=O)n1Cc1c(F)cccc1C(F)(F)F`, for which, in data set [1], the inhibition at 0.5 h, 10 µM was found to be 57%. Besides, the IC50 worked out at 0.00014 µM in data set [2] and 0.0269 µM in data set [3].
In the case of `Cc1c(N2CCN(Cc3cccc(C(F)(F)F)c3)CC2)c(=O)n(C[C@H](NCCCC(=O)O)c2ccccc2)c(=O)n1Cc1c(F)cccc1C(F)(F)F`, the inhibition at 0.5 h, 10 µM in data set [1] is 22%. Further, the IC50 worked out at 0.00068 µM in data set [2] and 0.0495 µM in data set [3].
As to `Cc1c(N2CCN(Cc3cccc(C(=O)NCC(=O)O)c3)CC2)c(=O)n(C[C@H](N)c2ccccc2)c(=O)n1Cc1c(F)cccc1C(F)(F)F`, the inhibition at 0.5 h, 10 µM in data set [1] came to 74%. Further, the IC50 is above 0.01 µM in data set [2] and above 0.3 µM in data set [3].
`Cc1c(N2CCN(Cc3cccc([N+](=O)[O-])c3)CC2)c(=O)n(C[C@H](NCCCC(=O)O)c2ccccc2)c(=O)n1Cc1c(F)cccc1C(F)(F)F`: in data set [1], the inhibition at 0.5 h, 10 µM worked out at 17%. In addition, the IC50 in data set [2] was determined as 0.00142 µM; in data set [3], 0.06 µM.
Take `Cc1c(N2CCN(Cc3ccc(C(F)(F)F)o3)CC2)c(=O)n(C[C@H](N)c2ccccc2)c(=O)n1Cc1c(F)cccc1C(F)(F)F`: the inhibition at 0.5 h, 10 µM in data set [1] came out at 96%. Besides, the IC50 in data set [2] turned out to be 0.00095 µM; in data set [3], 0.0126 µM.
On to `Cc1c(N2CCN(Cc3ccc(=O)[nH]c3)CC2)c(=O)n(C[C@H](N)c2ccccc2)c(=O)n1Cc1c(F)cccc1C(F)(F)F`, for which the IC50 in data set [2] worked out at 0.0281 µM; in data set [3] it was 1.09 µM.
As for `Cc1c(N2CCN(Cc3cccc4ccsc34)CC2)c(=O)n(C[C@H](N)c2ccccc2)c(=O)n1Cc1c(F)cccc1C(F)(F)F`, the IC50 in data set [2] amounted to 0.0182 µM; in data set [3], 10.2 µM.
For `CC(=O)c1cccc(CN2CCN(c3c(C)n(Cc4c(F)cccc4C(F)(F)F)c(=O)n(C[C@H](N)c4ccccc4)c3=O)CC2)c1` the same measures were 0.00016 µM and 0.0165 µM.
Turning to `Cc1c(N2CCN(Cc3cncc(F)c3)CC2)c(=O)n(C[C@H](N)c2ccccc2)c(=O)n1Cc1c(F)cccc1C(F)(F)F`, the IC50 was 0.002 µM in data set [2] and 1.51 µM in data set [3].
Regarding `Cc1c(N2CCN(Cc3cscn3)CC2)c(=O)n(C[C@H](N)c2ccccc2)c(=O)n1Cc1c(F)cccc1C(F)(F)F`, the IC50 in data set [2] came out at 0.0356 µM; in data set [3], 2.13 µM.
As to `Cc1c(N2CCN(Cc3cccc(C#N)c3)CC2)c(=O)n(C[C@H](N)c2ccccc2)c(=O)n1Cc1c(F)cccc1C(F)(F)F`, the IC50 in data set [2] is 0.00041 µM; in data set [3], 0.213 µM.
Take `Cc1c(N2CCN(Cc3cccc(C(=O)NCCCC(=O)O)c3)CC2)c(=O)n(C[C@H](N)c2ccccc2)c(=O)n1Cc1c(F)cccc1C(F)(F)F`: the inhibition at 0.5 h, 10 µM in data set [1] amounted to 66%. Moreover, the IC50 in data set [2] was found to be 0.0011 µM; in data set [3], 0.376 µM.
Consider `Cc1c(N2CCN(Cc3cccc([N+](=O)[O-])c3)CC2)c(=O)n(C[C@H](N)c2ccccc2)c(=O)n1Cc1c(F)cccc1F`, for which the IC50 is 0.0029 µM in data set [2] and 0.401 µM in data set [3].
Take `Cc1c(N2CCN(Cc3ccccc3F)CC2)c(=O)n(C[C@H](N)c2ccccc2)c(=O)n1Cc1c(F)cccc1C(F)(F)F`: the IC50 in data set [2] is 0.001 µM; in data set [3], 0.34 µM.
For the compound `Cc1c(N2CCN(Cc3cccc4nonc34)CC2)c(=O)n(C[C@H](N)c2ccccc2)c(=O)n1Cc1c(F)cccc1C(F)(F)F`, the figures for the 50% inhibitory concentration (IC50) in data set [2] and in data set [3] were 0.0006 µM and 0.885 µM, respectively.
Turning to `Cc1c(N2CCN(Cc3ccco3)CC2)c(=O)n(C[C@H](N)c2ccccc2)c(=O)n1Cc1c(F)cccc1C(F)(F)F`, the IC50 in data set [2] was 0.00276 µM; in data set [3] it was above 1 µM.
As to `Cc1c(N2CCN(Cc3cccnc3)CC2)c(=O)n(C[C@H](N)c2ccccc2)c(=O)n1Cc1c(F)cccc1C(F)(F)F`, the IC50 stood at 0.002 µM in data set [2] and 0.29 µM in data set [3].
On to `Cc1c(N2CCN(Cc3cccc(F)c3F)CC2)c(=O)n(C[C@H](N)c2ccccc2)c(=O)n1Cc1c(F)cccc1C(F)(F)F`, for which the values for the IC50 in data set [2] and in data set [3] were 0.00039 µM and 0.266 µM, respectively.
Consider `Cc1c(N2CCN(Cc3cccc([N+](=O)[O-])c3)CC2)c(=O)n(C[C@H](N)c2ccccc2)c(=O)n1Cc1c(F)cccc1C(F)(F)F`, for which, in data set [1], the inhibition at 0.5 h, 10 µM came to 89%. Besides, the results for the IC50 in data set [2] and in data set [3] were 0.00045 µM and 0.102 to 0.155 µM, respectively.
Regarding `COC(=O)c1ccc(CN2CCN(c3c(C)n(Cc4c(F)cccc4C(F)(F)F)c(=O)n(C[C@H](N)c4ccccc4)c3=O)CC2)o1`, the IC50 in data set [2] came out at 0.00031 µM; in data set [3] it was 0.064 µM.
Turning to `Cc1c(N2CCN(Cc3cccc(OC(F)(F)F)c3)CC2)c(=O)n(C[C@H](N)c2ccccc2)c(=O)n1Cc1c(F)cccc1C(F)(F)F`, the IC50 stood at 0.001 µM in data set [2] and 0.25 µM in data set [3].
As to `Cc1c(N2CCN(Cc3cncs3)CC2)c(=O)n(C[C@H](N)c2ccccc2)c(=O)n1Cc1c(F)cccc1C(F)(F)F`, the IC50 in data set [2] worked out at 0.00894 µM; in data set [3], 0.93 µM.
In the case of `Cc1c(N2CCN(Cc3cccc(C(N)=O)c3)CC2)c(=O)n(C[C@H](N)c2ccccc2)c(=O)n1Cc1c(F)cccc1C(F)(F)F`, the inhibition at 0.5 h, 10 µM in data set [1] turned out to be 93%. The values for the IC50 in data set [2] and in data set [3] were 0.00195 µM and 0.0865 µM, respectively.
For `Cc1c(N2CCN(Cc3cccc(C(F)(F)F)c3)CC2)c(=O)n(C[C@H](N)c2ccccc2)c(=O)n1Cc1c(F)cccc1C(F)(F)F` the same measures were 96%, 0.00033 to 0.00052 µM and 0.0279 µM.
Take `Cc1c(N2CCN(Cc3ccc(C#N)o3)CC2)c(=O)n(C[C@H](N)c2ccccc2)c(=O)n1Cc1c(F)cccc1C(F)(F)F`: the IC50 in data set [2] amounted to 0.00017 µM; in data set [3], 0.103 µM.
Consider `Cc1c(N2CCN(Cc3nccs3)CC2)c(=O)n(C[C@H](N)c2ccccc2)c(=O)n1Cc1c(F)cccc1C(F)(F)F`, for which the IC50 amounted to 0.0177 µM in data set [2] and 1.66 µM in data set [3].
Take `COC(=O)c1cccc(CN2CCN(c3c(C)n(Cc4c(F)cccc4C(F)(F)F)c(=O)n(C[C@H](N)c4ccccc4)c3=O)CC2)c1`: the values for the IC50 in data set [2] and in data set [3] were 0.00039 µM and 0.0233 µM, respectively.
For the compound `Cc1c(N2CCN(Cc3cccc(F)c3)CC2)c(=O)n(C[C@H](N)c2ccccc2)c(=O)n1Cc1c(F)cccc1C(F)(F)F`, the IC50 was determined as 0.0017 µM in data set [2] and 0.321 µM in data set [3].
As for `Cc1c(N2CCN(Cc3cccc([N+](=O)[O-])c3)CC2)c(=O)n(C[C@H](N)c2ccccc2O)c(=O)n1Cc1c(F)cccc1C(F)(F)F`, in data set [1], the inhibition at 0.5 h, 10 µM worked out at 97%. Moreover, the IC50 in data set [2] stood at 0.00017 µM; in data set [3] it was 0.0893 µM.
As to `Cc1c(N2CCN(Cc3ccc(C(F)(F)F)o3)CC2)c(=O)n(C[C@H](NCCCP(=O)(O)O)c2ccccc2)c(=O)n1Cc1c(F)cccc1C(F)(F)F`, the inhibition at 0.5 h, 10 µM in data set [1] turned out to be 16%. For the same compound, the values for the IC50 in data set [2] and in data set [3] were 0.0012 µM and 0.411 µM, respectively.
For `Cc1c(N2CCN(Cc3cccnc3Cl)CC2)c(=O)n(C[C@H](N)c2ccccc2)c(=O)n1Cc1c(F)cccc1C(F)(F)F`, the results for the IC50 in data set [2] and in data set [3] were 0.00257 µM and 0.526 µM, respectively.
Take `Cc1c(N2CCN(Cc3ccoc3)CC2)c(=O)n(C[C@H](N)c2ccccc2)c(=O)n1Cc1c(F)cccc1C(F)(F)F`: the IC50 was 0.00659 µM in data set [2] and above 1 µM in data set [3].
For `Cc1c(N2CCN(Cc3nc4ccccc4s3)CC2)c(=O)n(C[C@H](N)c2ccccc2)c(=O)n1Cc1c(F)cccc1C(F)(F)F` the same measures were 0.048 µM and 4.9 µM.
`Cc1c(N2CCN(Cc3ccc(C(F)(F)F)o3)CC2)c(=O)n(C[C@H](NCCCS(=O)(=O)O)c2ccccc2)c(=O)n1Cc1c(F)cccc1C(F)(F)F`: the inhibition at 0.5 h, 10 µM in data set [1] came out at 45%. In addition, the IC50 was 0.0011 µM in data set [2] and 0.122 µM in data set [3].
In the case of `Cc1cncc(CN2CCN(c3c(C)n(Cc4c(F)cccc4C(F)(F)F)c(=O)n(C[C@H](N)c4ccccc4)c3=O)CC2)c1`, the IC50 in data set [2] was determined as 0.00718 µM; in data set [3] it was 1.18 µM.
In the case of `Cc1cc(CN2CCN(c3c(C)n(Cc4c(F)cccc4C(F)(F)F)c(=O)n(C[C@H](N)c4ccccc4)c3=O)CC2)c(C(F)(F)F)o1`, the 50% inhibitory concentration (IC50) was above 0.1 µM in data set [2] and above 1 µM in data set [3].
Turning to `Cc1c(N2CCN(Cc3cccc([N+](=O)[O-])c3)CC2)c(=O)n(C[C@H](N)c2ccccc2OCC(=O)O)c(=O)n1Cc1c(F)cccc1C(F)(F)F`, in data set [1], the inhibition at 0.5 h, 10 µM was found to be 30%. Further, the IC50 in data set [2] was found to be 0.00023 µM; in data set [3] it was 0.0277 µM.
Take `Cc1c(N2CCN(Cc3cccc(S(C)(=O)=O)c3)CC2)c(=O)n(C[C@H](N)c2ccccc2)c(=O)n1Cc1c(F)cccc1C(F)(F)F`: the IC50 turned out to be 0.00038 µM in data set [2] and 0.214 µM in data set [3].
As to `Cc1ncccc1CN1CCN(c2c(C)n(Cc3c(F)cccc3C(F)(F)F)c(=O)n(C[C@H](N)c3ccccc3)c2=O)CC1`, the IC50 amounted to 0.00511 µM in data set [2] and 0.543 µM in data set [3].
As to `Cc1c(N2CCN(Cc3cnccn3)CC2)c(=O)n(C[C@H](N)c2ccccc2)c(=O)n1Cc1c(F)cccc1C(F)(F)F`, the IC50 in data set [2] stood at 0.02 µM; in data set [3], 2.05 µM.
Regarding `Cc1c(N2CCN(Cc3ccccc3C#N)CC2)c(=O)n(C[C@H](N)c2ccccc2)c(=O)n1Cc1c(F)cccc1C(F)(F)F`, the IC50 was 0.00032 µM in data set [2] and 0.351 µM in data set [3].
With `CCOP(=O)(O)CCCN[C@@H](Cn1c(=O)c(N2CCN(Cc3ccc(C(F)(F)F)o3)CC2)c(C)n(Cc2c(F)cccc2C(F)(F)F)c1=O)c1ccccc1`, the inhibition at 0.5 h, 10 µM in data set [1] was determined as 45%. The values for the IC50 in data set [2] and in data set [3] were 0.0018 µM and 0.184 µM, respectively.
For `Cc1c(N2CCN(Cc3cccnc3F)CC2)c(=O)n(C[C@H](N)c2ccccc2)c(=O)n1Cc1c(F)cccc1C(F)(F)F`, the IC50 in data set [2] is 0.00107 µM; in data set [3], 0.193 µM.

Values taken from ChEMBL document CHEMBL4428102, “Discovery of an Orally Bioavailable Gonadotropin-Releasing Hormone Receptor Antagonist” (J Med Chem, 2016).
